Some test systems named below: OVCAR-5 ovarian; SK-MEL-28 melanoma; T-47D breast; U251 CNS; OVCAR-3 ovarian; NCI-H23 lung; HL-60(TB) leukemia; HS 578T breast; UACC-257 melanoma; A498 renal.
Holding throughout (experiment): NCI tumour cell line growth inhibition, 48 h

Values joined by “and” are separate entries in the source; they are usually repeats but may differ in a detail not shown here. Equal values may be shown once.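 Each compound was tested at five concentrations against cells in 96-well plates for 48 hours. GI50: concentration for 50% inhibition of growth. TGI marks complete inhibition of growth.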

With `OCCCNC(=S)Nc1ccc(-c2nc3ccccc3s2)cc1`, the GI50 in the experiment on OVCAR-5 ovarian was 20.6 µM; in the experiment with SK-MEL-28 melanoma, 24.9 µM; with T-47D breast it was 16.9 µM; in the experiment with U251 CNS, 29.8 µM; in the experiment with OVCAR-3 ovarian, 15 µM; in the experiment with NCI-H23 lung, 24.3 µM. For the same compound, the GI50 in the experiment with HL-60(TB) leukemia was 25.5 µM; in the experiment on HS 578T breast, 33 µM; in the experiment with UACC-257 melanoma it was 27.1 µM. In addition, the TGI in the experiment with OVCAR-5 ovarian is 58.3 µM; in the experiment with SK-MEL-28 melanoma, 70.3 µM; in the experiment on T-47D breast, above 100 µM; in the experiment on U251 CNS, above 100 µM; with OVCAR-3 ovarian, 59.8 µM; with NCI-H23 lung, 60.8 µM. For the same compound, the TGI in the experiment on HL-60(TB) leukemia was above 100 µM; in the experiment on HS 578T breast it was above 100 µM; in the experiment on UACC-257 melanoma it was 51.9 µM.

For `COc1cc([C@@H]2c3cc4c(cc3[C@H](O)[C@H]3COC(=O)[C@@H]23)OCO4)cc(OC)c1OC`, the GI50 in the experiment with OVCAR-5 ovarian is 0.721 µM; in the experiment on SK-MEL-28 melanoma, 0.561 µM and 0.374 µM; in the experiment with T-47D breast, 0.405 µM; in the experiment on U251 CNS it was 0.46 µM and 0.382 µM; in the experiment on OVCAR-3 ovarian, 0.303 µM and 0.159 µM; in the experiment on A498 renal it was 0.239 µM and 0.451 µM. Further, the GI50 is 0.78 µM and 0.239 µM in the experiment on NCI-H23 lung; 0.293 µM and 0.454 µM in the experiment with HL-60(TB) leukemia; 0.298 µM and 0.293 µM in the experiment on HS 578T breast; above 100 µM in the experiment on UACC-257 melanoma. Further, the TGI with OVCAR-5 ovarian was above 100 µM; with SK-MEL-28 melanoma, above 100 µM; in the experiment on T-47D breast, 4.64 µM; in the experiment on U251 CNS it was above 100 µM; in the experiment with OVCAR-3 ovarian it was 1.53 µM and 0.371 µM; in the experiment with NCI-H23 lung it was above 100 µM. Besides, the TGI in the experiment with HL-60(TB) leukemia is > 2.81 µM and 64.1 µM; in the experiment with HS 578T breast, above 5.83 µM; with UACC-257 melanoma, above 100 µM.

As for `COc1ccc2c(c1)N(CCO)C1=C(C(=O)OC1)C2c1cccc(Br)c1` (stereo unspecified), the GI50 in the experiment with OVCAR-5 ovarian was 0.466 µM; in the experiment on T-47D breast, 26.1 µM; in the experiment with U251 CNS it was 0.0534 µM; with OVCAR-3 ovarian it was 0.0338 µM; in the experiment with A498 renal, 0.0293 µM; with NCI-H23 lung, 0.156 µM. Further, the GI50 in the experiment with HL-60(TB) leukemia is 0.0671 µM; in the experiment on HS 578T breast, 0.209 µM; in the experiment on UACC-257 melanoma, 0.034 µM. In addition, the TGI with OVCAR-5 ovarian was above 100 µM; in the experiment with T-47D breast, above 100 µM; in the experiment with U251 CNS, 15.9 µM; in the experiment on OVCAR-3 ovarian, 0.135 µM; in the experiment with A498 renal, 1.21 µM; in the experiment on NCI-H23 lung, above 100 µM. Besides, the TGI is 0.601 µM in the experiment with HL-60(TB) leukemia, above 100 µM in the experiment on HS 578T breast and 40.7 µM with UACC-257 melanoma.

`COc1ccc(OC)c(/C=C/c2cnnc3ccccc23)c1`: the TGI in the experiment on OVCAR-5 ovarian, in the experiment on SK-MEL-28 melanoma, with T-47D breast, with U251 CNS, in the experiment with OVCAR-3 ovarian and with NCI-H23 lung was above 10 µM each time. Moreover, the figures for the TGI in the experiment on HL-60(TB) leukemia, with HS 578T breast and with UACC-257 melanoma were above 10 µM, 7.76 µM and above 10 µM, respectively.

Take `COc1ccc(C2SC(C)C(=O)N2NC(=O)C(O)c2ccccc2)cc1` (stereo unspecified): the GI50 in the experiment on OVCAR-5 ovarian, in the experiment on SK-MEL-28 melanoma, in the experiment on T-47D breast, in the experiment on U251 CNS, in the experiment with OVCAR-3 ovarian and in the experiment on A498 renal was above 100 µM each time. The GI50 in the experiment with HL-60(TB) leukemia, in the experiment with HS 578T breast and in the experiment on UACC-257 melanoma was above 100 µM in each case. Besides, the TGI with OVCAR-5 ovarian, in the experiment on SK-MEL-28 melanoma, in the experiment with T-47D breast, with U251 CNS, with OVCAR-3 ovarian and in the experiment on A498 renal was above 100 µM throughout. For the same compound, the TGI in the experiment on HL-60(TB) leukemia, in the experiment with HS 578T breast and in the experiment on UACC-257 melanoma was above 100 µM throughout.

Turning to `N=C(N)c1ccc(-c2ccc(-c3ccco3)o2)cc1F`, the GI50 was 2.7 µM with OVCAR-5 ovarian; 1.81 µM in the experiment on SK-MEL-28 melanoma; 2.05 µM with T-47D breast; 1.72 µM in the experiment with U251 CNS; 3.06 µM in the experiment with OVCAR-3 ovarian; 1.36 µM in the experiment with A498 renal. The figures for the GI50 with HL-60(TB) leukemia, with HS 578T breast and in the experiment on UACC-257 melanoma were 2.19 µM, 1.53 µM and 1.59 µM, respectively. Besides, the TGI with OVCAR-5 ovarian was 10.3 µM; in the experiment with SK-MEL-28 melanoma, 3.67 µM; in the experiment on T-47D breast it was 5.54 µM; in the experiment with U251 CNS it was 3.55 µM; in the experiment with OVCAR-3 ovarian, 9.77 µM; with A498 renal it was 4.83 µM. Moreover, the TGI in the experiment with HL-60(TB) leukemia was 4.29 µM; in the experiment with HS 578T breast it was 4.7 µM; with UACC-257 melanoma, 3.08 µM.

On to `Cc1ccc(S(=O)(=O)C2=C3C(=C(c4ccccc4)c4ccccc43)CN(S(=O)(=O)c3ccc(C)cc3)C2)cc1`, for which the GI50 in the experiment on OVCAR-5 ovarian is 25.4 µM; with SK-MEL-28 melanoma, 15 µM; in the experiment on T-47D breast, 2.91 µM; with U251 CNS, 3.01 µM; with OVCAR-3 ovarian, 4.34 µM; in the experiment with NCI-H23 lung, 3.36 µM. The values for the GI50 in the experiment on HL-60(TB) leukemia, in the experiment with HS 578T breast and with UACC-257 melanoma were 11.2 µM, 2.57 µM and 15.8 µM, respectively. In addition, the TGI was above 100 µM in the experiment on OVCAR-5 ovarian; 52.3 µM in the experiment with SK-MEL-28 melanoma; 31.5 µM with T-47D breast; 12.7 µM in the experiment on U251 CNS; 18.8 µM in the experiment with OVCAR-3 ovarian; 23.7 µM in the experiment with NCI-H23 lung. Also, the TGI in the experiment with HL-60(TB) leukemia is above 100 µM; with HS 578T breast, 39.9 µM; with UACC-257 melanoma, 37.4 µM.

Consider `COc1cccc(-c2cc(NCc3ccc4c(c3)OCO4)nc(N)n2)c1`, for which the GI50 was 0.488 µM in the experiment on OVCAR-5 ovarian; 0.0724 µM in the experiment with SK-MEL-28 melanoma; 16.9 µM in the experiment with T-47D breast; 0.0552 µM in the experiment on U251 CNS; 0.0409 µM in the experiment on OVCAR-3 ovarian; 0.033 µM in the experiment with A498 renal. Also, the GI50 in the experiment on NCI-H23 lung is 0.135 µM; in the experiment on HL-60(TB) leukemia, 0.0324 µM; with HS 578T breast, 0.0505 µM. Also, the TGI was determined as 28.8 µM with OVCAR-5 ovarian; 19.7 µM in the experiment on SK-MEL-28 melanoma; 50.6 µM in the experiment with T-47D breast; 11.2 µM in the experiment with U251 CNS; 0.988 µM with OVCAR-3 ovarian; 0.763 µM in the experiment with A498 renal. Also, the figures for the TGI in the experiment on NCI-H23 lung, in the experiment on HL-60(TB) leukemia and in the experiment with HS 578T breast were 16.5 µM, 0.296 µM and 27.6 µM, respectively.

These data come from PubChem BioAssay (NCI).
